Laboratory results from patent US20250082557A1, “COMPOSITION FOR ENHANCING SKIN VITALITY CONTAINING A THYMOL ESTER-BASED COMPOUND” (Amorepacific Corporation, priority 2023, published 2025).

Experiments:
[1] = tested on: skin fibroblasts; test: Mitochondrial activity: maximal oxygen consumption rate (OCR), Seahorse XF cell mitochondrial stress test; format: cell-based
Text: Specifically, the Seahorse XF Pro analyzer equipment from Agilent was used, and the mitochondrial activity (ATP energy production efficiency), i.e., the maximal oxygen consumption rate (OCR), was observed according to the standard protocol provided with the Seahorse XF cell mitochondrial stress measurement kit provided by the company (FIG. 2).

[2] = tested on: mitophagy marker genes (VDAC, Parkin, PINK); test: Expression of mitophagy marker genes (VDAC, Parkin, PINK) by RT-PCR; format: cell-based; conditions: fibroblasts, hydrocortisone 10 μM and MELASOLV 5.5 μg/ml for 24 hours; FIGS. 3 to 5
Experimental: Fibroblasts were seeded in 10 cm^2 cell culture dishes at a concentration of 3×10^5 cells/dish and cultured in 10 ml of minimum essential medium eagle (MEM) medium containing 10% fetal bovine serum (FBS) and 1% penicillin streptomycin. After 24 hours, the cells reached approximately 70%, and the cells were treated with (1) DMSO (control), (2) hydrocortisone (10 μM) alone, or (3) hydrocortisone (10 μM) and MELASOLV™ (5.5 μg/ml) for 24 hours.
RNA was extracted with easy-BLUE (INTRON) reagent. cDNA samples were generated from 0.5 μg of RNA using PrimeScript RT reagent Kit. The generated cDNA was amplified using ACCUPOWER™ PCR Premix. The PCR products were further analyzed using PCR Thermal Cycler Dice.
It was confirmed through a […] in the expression of mitophagy marker genes (VDAC, Parkin, PINK) whether it contributes to the activation of mitophagy which removes unnecessary elements from mitochondria.

[3] = hydrocortisone 10 uM 24 hours, MELASOLV 5 ppm 24 hours, FIG. 2

Row | Structure (SMILES) | maximal respiration (OCR) compared to the control group not treated with anything [1, 3] | maximal respiration (maximal oxygen consumption rate, OCR) compared to treatment with only hydrocortisone [1, 3] | cell respiration rate (OCR) reduced by hydrocortisone, effect of treatment ([1]; hydrocortisone 10 uM, MELASOLV 5 ppm 24 hours) | expression of mitophagy genes (VDAC, Parkin, PINK) [2] | cell respiration rate (OCR) compared to the control group (Ctrl) ([1]; hydrocortisone 10 uM 24 hours alone (stress-induced condition))
1 | COc1cc(/C=C/C(=O)Oc2cc(C)ccc2C(C)C)cc(OC)c1OC [MELASOLV™, (5-methyl-2-propan-2-ylphenyl) (E)-3-(3,4,5-trimethoxyphenyl) prop-2-enoate] | increased higher | statistically significantly higher | recovered | increased | 
2 | C[C@]12CCC(=O)C=C1CC[C@@H]1[C@@H]2[C@@H](O)C[C@@]2(C)[C@H]1CC[C@]2(O)C(=O)CO [hydrocortisone, reference compound] |  |  |  |  | reduced
